Measured values taken from patent US12344584B2, “KCNQ potentiators” (Eli Lilly and Company, priority 2019, dated 2025).
Read-outs that look alike come from different tables or passages of the source.

What was measured:
[1] = tested on: motor neurons derived from ALS patient iPSC line with pathogenic repeat expansion mutation in C9orf72; experiment: Optopatch excitability assay in motor neurons derived from ALS patient iPSC line (C9orf72 repeat expansion); type: cell-based; settings: Homo sapiens, read-out: EC50, inhibition of excitability (action potential frequency)
Source text: Optopatch Excitability Assay for Example 1 in Motor Neurons Derived From ALS Patient iPSC Lines
Altered excitability of cortical neurons and lower motor neuron is an important factor in the pathophysiology of ALS (See, for example, K. Kanai, et. al., J Neurol Neurosurg Psychiatry, 83, 734-738 (2012); P. Menon, et. al., Eur Neurol., 24, 816-824 (2017)). All-optical electrophysiology (“Optopatch”) was used to evaluate excitability in cultured motor neurons derived from iPSC lines from two ALS patients with different pathogenic mutations.
Cell Culture: The two iPSC lines are derived from one patient with a pathogenic mutation in TARDBP and one patient with a pathogenic repeat expansion mutation in C9orf72, respectively. Motor neurons are generated from these lines by a 2D differentiation method adapted from the dual SMAD inhibition neuronal patterning protocol (See S. M. Chambers, et. al., Nat Biotechnol., 27, 275-280 (2009)) by inclusion of motor neuron morphogens. Differentiation is verified by visual inspection, karyotyping and staining for beta-III-tubulin and the nuclear motor neuron marker ISL1. Neurons are cultured on a monolayer of mouse glia in mTeSR (Stem Cell Technologies), supplemented with 10 ng/mL BDNF. Forty-eight hours prior to imaging, 100 nM trans-retinal was added to the medium.
Transduction with Optopatch vectors: At 15 days in vitro, cultured motor neurons are transduced with a lentiviral vector to drive the co-expression of the actuator CheRiff-mOrange2 and the voltage indicator QuasAr3-Citrine (for details see D. R. Hochbaum, et. al., Nat. Methods, 11, 825-833 (2014)). Forty-eight hours prior to imaging, 100 nM trans-retinal was added to the medium.
Solutions: Recordings are performed in Brainphys™ imaging buffer with 3 mM potassium. […]
Optopatch Recordings: Five days after transduction, Optopatch imaging is performed on a custom, ultra-widefield fluorescence microscope at RT. Motor neurons are illuminated with red laser excitation (200 W/cm^2; 635 nm) to monitor changes in QuasAr fluorescence and blue LED excitation (0-127 mW/cm^2, 470 nm) to depolarize the cell membrane with CheRiff. […] Optopatch data are recorded using a Hamamatsu ORCA-Flash 4.0 sCMOS camera with a 1 kHz frame rate. […]
Data Analysis: Image segmentation analysis is performed using temporal Principle Component Analysis and spatial-temporal Independent Component Analysis to isolate individual neurons. A spike-finding algorithm is used to find action potentials, and data are analyzed for compound effects on mean firing rate, adaptation, rheobase and action potential waveform shape by comparing to vehicle controls (for detail, see C. A. Werley, et. al., Curr. Protoc. Pharmacol., 78, 11.20.1-11.20.24. (2017)). […]

[2] = Unbound exposure in blood (dry blood spots, LC/MSMS, fraction unbound by dialysis) in threshold tracking study; type: in vivo; settings: rat
Experimental: In threshold tracking assay to measure the excitability properties of peripheral axons studies in rat, compound is administered by IP at 3, 10 or 30 mg/kg using 1% hydroxyethylcellulose: 0.25% polysorbate 80:0.05% antifoam:purified water (HEC) formulation. Dry blood spots (DBS) are collected around 10, 20, 30 and terminal 40 min post-dose. DBS samples are dried at RT for around 2 h. Brain samples are obtained at terminal time point and frozen until analysis. DBS samples are shipped and stored at RT.
A 1-mg/mL stock solution of Example 1 is prepared and is serially diluted into pooled rat blood to prepare standards ranging from 1 to 10000 ng/mL. Blood wis spiked to blank DBS cards to make the standards. One 3 mm punch of the DBS standards or samples are added to 96 well plate and 180 μL of the internal standard (IS) in 1:1 ACN:MeOH is added. Shake for 45 min, dilute the extraction solution two fold with water, and analyze by LC/MSMS for drug concentration analysis.
Samples and standards are analyzed with a Sciex API 4000 Triple Quadrupole Mass Spectrometer (Sciex, Division of MDS Inc., Toronto, Canada) coupled to a Shimadzu HPLC System (LC-IOAD, Shimadzu Corporation) and a Gilson 215 Autosampler. […] Quantitation is performed using multiple reaction monitoring (MRM) at the following transitions: Example 1 (m/z 350.2 to m/z 233.0) and an analog internal standard (m/z 263.1 to m/z 148.1). […]
Drug binding to rat plasma proteins and brain homogenates is determined using in vitro dialysis method after spiking drug into these matrixes and incubated over 4.5 h at 37° C., while undergoing orbital shaking. […] Parent is quantitated by LC-MSMS at both 0 and […] time points. Fraction unbound is calculated by dividing the concentration of the buffer side by the concentration of the protein side. Percent recovery is also calculated by dividing the sum of the buffer and protein chambers by the time 0 concentration after 4.5 h. […]

Which EC50 ([1]; Diff 1, blue LED 5.1 mW/cm^2, mean) does the source give for `CC(C)(C)[C@H](O)CNC(=O)NCc1ccnc(OCC(F)(F)F)c1` [Example 1, 1-[(2S)-2-hydroxy-3,3-dimethyl-butyl]-3-[[2-(2,2,2-trifluoroethoxy)-4-pyridyl]methyl]urea] here?
Its EC50 is 170 nM.

And the EC50 ([1]; Diff 2, blue LED 5.1 mW/cm^2, mean)?
Its EC50 is 200 nM.

And the “Unbound Exposure in Blood (±SEM)” value ([2]; 3 mg/kg (IP))?
The value was 145 (±90) nM.

And the “Unbound Exposure in Blood (±SEM)” value ([2]; 10 mg/kg (IP))?
The value was 193 (±50) nM.

What about the “Unbound Exposure in Blood (±SEM)” value ([2]; 30 mg/kg (IP)) of the same molecule?
The value was 352 (±245) nM.
